From the kinase profiling compilation of Christmann-Franck et al. (2016)

Experiments:
Assay in all cases: KINOMEscan competition binding
Conditions in all cases: compound 10.0 µM
[1] = test system: BMX (human), P51813 [V600E]
CAMK1D (human) = CAMK1D (human) (UniProt Q8IU85)
CDK2 (human) = CDK2 (human) (UniProt P24941)
CLK1 (human) = CLK1 (human) (UniProt P49759)
CSNK1A1L (human) = CSNK1A1L (human) (UniProt Q8N752)
CSNK2A1 (human) = CSNK2A1 (human) (UniProt P68400)
DYRK1B (human) = DYRK1B (human) (UniProt Q9Y463)
EGFR (human) = EGFR (human) (UniProt P00533)
[2] = test system: EGFR (human), P00533 [A750P; 747-749 del]
EIF2AK2 (human) = EIF2AK2 (human) (UniProt P19525)
EPHA7 (human) = EPHA7 (human) (UniProt Q15375)
FLT1 (human) = FLT1 (human) (UniProt P17948)
LATS1 (human) = LATS1 (human) (UniProt O95835)
LIMK2 (human) = LIMK2 (human) (UniProt P53671)
MAP2K4 (human) = MAP2K4 (human) (UniProt P45985)
MAP2K7 (human) = MAP2K7 (human) (UniProt O14733)
MAPK10 (human) = MAPK10 (human) (UniProt P53779)
MAPK6 (human) = MAPK6 (human) (UniProt Q16659)
MARK3 (human) = MARK3 (human) (UniProt P27448)
MERTK (human) = MERTK (human) (UniProt Q12866)
MST4 (human) = MST4 (human) (UniProt Q9P289)
MTOR (human) = MTOR (human) (UniProt P42345)
MYLK3 (human) = MYLK3 (human) (UniProt Q32MK0)
NTRK1 (human) = NTRK1 (human) (UniProt P04629)
NUAK1 (human) = NUAK1 (human) (UniProt O60285)
PAK4 (human) = PAK4 (human) (UniProt O96013)
PIK3CA (human) = PIK3CA (human) (UniProt P42336)
[3] = test system: PIK3CA (human), P42336 [E542K]
RPS6KA2 KD2 (human) = RPS6KA2 KD2 (human) (UniProt Q15349)
RPS6KA4 KD2 (human) = RPS6KA4 KD2 (human) (UniProt O75676)
RPS6KA6 KD2 (human) = RPS6KA6 KD2 (human) (UniProt Q9UK32)
SRC (human) = SRC (human) (UniProt P12931)
STK10 (human) = STK10 (human) (UniProt O94804)
STK39 (human) = STK39 (human) (UniProt Q9UEW8)
TEC (human) = TEC (human) (UniProt P42680)
TNK2 (human) = TNK2 (human) (UniProt Q07912)
[4] = target: TYK2 JH1 catalytic (human) (UniProt P29597)
ULK2 (human) = ULK2 (human) (UniProt Q8IYT8)
YSK4 (human) = YSK4 (human) (UniProt Q56UN5)
MAP4K4 (human) = MAP4K4 (human) (UniProt O95819)

YSK4 (human), sequence (Q56UN5 whole entry, looked up): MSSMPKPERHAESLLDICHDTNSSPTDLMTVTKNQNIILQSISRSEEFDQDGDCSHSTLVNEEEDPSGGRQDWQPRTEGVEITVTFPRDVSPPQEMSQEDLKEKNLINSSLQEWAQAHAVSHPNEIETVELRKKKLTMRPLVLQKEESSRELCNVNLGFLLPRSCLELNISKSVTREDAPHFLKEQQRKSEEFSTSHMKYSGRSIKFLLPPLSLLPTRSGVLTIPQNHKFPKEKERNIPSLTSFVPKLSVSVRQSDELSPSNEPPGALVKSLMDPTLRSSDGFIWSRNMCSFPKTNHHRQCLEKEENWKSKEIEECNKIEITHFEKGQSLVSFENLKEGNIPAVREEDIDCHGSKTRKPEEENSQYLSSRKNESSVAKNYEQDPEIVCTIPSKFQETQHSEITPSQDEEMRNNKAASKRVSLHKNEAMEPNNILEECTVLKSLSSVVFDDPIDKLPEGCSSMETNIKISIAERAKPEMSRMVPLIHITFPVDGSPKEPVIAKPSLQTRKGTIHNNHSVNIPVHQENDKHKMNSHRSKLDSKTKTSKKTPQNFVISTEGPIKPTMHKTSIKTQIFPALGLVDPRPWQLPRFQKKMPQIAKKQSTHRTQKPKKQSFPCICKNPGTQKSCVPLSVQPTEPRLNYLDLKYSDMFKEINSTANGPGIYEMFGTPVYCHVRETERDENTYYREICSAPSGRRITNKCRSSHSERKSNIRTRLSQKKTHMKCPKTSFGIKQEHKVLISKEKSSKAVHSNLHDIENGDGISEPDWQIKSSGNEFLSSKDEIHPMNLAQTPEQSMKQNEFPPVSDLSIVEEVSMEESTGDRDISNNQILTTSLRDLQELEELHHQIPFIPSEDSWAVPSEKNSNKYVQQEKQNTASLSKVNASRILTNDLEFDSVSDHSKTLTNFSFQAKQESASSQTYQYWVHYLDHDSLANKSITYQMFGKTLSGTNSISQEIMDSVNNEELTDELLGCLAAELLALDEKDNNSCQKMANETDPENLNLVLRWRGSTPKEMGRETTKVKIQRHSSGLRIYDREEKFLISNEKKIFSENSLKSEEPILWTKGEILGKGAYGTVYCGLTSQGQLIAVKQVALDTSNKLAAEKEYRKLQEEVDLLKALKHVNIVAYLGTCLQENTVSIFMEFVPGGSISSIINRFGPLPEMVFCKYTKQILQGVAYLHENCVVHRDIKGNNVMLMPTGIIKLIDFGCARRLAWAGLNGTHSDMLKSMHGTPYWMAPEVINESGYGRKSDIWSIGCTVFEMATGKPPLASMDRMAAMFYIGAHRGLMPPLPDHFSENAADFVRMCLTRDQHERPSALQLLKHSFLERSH
MYLK3 (human), sequence (Q32MK0 whole entry, looked up): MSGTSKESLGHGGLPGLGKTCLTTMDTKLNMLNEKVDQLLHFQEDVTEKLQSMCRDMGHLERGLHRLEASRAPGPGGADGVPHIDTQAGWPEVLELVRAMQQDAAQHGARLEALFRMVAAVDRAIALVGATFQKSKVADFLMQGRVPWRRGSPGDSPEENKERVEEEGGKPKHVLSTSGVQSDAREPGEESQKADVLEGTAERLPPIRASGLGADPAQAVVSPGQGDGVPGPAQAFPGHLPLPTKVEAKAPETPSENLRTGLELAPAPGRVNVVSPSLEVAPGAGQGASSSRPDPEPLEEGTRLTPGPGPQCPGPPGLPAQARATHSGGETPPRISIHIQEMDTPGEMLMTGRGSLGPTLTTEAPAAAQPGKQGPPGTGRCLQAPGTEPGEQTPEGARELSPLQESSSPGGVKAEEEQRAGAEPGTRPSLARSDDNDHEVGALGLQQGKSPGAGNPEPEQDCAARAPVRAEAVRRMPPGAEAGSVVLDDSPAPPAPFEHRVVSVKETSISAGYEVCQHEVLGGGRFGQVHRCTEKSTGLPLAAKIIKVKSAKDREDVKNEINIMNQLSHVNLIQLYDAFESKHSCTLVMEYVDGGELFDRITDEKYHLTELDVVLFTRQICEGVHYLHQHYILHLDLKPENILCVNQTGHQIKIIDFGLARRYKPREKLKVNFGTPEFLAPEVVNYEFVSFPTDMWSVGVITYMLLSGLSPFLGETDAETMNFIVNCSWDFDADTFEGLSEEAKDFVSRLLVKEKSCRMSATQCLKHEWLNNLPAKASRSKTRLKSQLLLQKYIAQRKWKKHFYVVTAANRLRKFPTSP
MERTK (human), sequence (Q12866 whole entry, looked up): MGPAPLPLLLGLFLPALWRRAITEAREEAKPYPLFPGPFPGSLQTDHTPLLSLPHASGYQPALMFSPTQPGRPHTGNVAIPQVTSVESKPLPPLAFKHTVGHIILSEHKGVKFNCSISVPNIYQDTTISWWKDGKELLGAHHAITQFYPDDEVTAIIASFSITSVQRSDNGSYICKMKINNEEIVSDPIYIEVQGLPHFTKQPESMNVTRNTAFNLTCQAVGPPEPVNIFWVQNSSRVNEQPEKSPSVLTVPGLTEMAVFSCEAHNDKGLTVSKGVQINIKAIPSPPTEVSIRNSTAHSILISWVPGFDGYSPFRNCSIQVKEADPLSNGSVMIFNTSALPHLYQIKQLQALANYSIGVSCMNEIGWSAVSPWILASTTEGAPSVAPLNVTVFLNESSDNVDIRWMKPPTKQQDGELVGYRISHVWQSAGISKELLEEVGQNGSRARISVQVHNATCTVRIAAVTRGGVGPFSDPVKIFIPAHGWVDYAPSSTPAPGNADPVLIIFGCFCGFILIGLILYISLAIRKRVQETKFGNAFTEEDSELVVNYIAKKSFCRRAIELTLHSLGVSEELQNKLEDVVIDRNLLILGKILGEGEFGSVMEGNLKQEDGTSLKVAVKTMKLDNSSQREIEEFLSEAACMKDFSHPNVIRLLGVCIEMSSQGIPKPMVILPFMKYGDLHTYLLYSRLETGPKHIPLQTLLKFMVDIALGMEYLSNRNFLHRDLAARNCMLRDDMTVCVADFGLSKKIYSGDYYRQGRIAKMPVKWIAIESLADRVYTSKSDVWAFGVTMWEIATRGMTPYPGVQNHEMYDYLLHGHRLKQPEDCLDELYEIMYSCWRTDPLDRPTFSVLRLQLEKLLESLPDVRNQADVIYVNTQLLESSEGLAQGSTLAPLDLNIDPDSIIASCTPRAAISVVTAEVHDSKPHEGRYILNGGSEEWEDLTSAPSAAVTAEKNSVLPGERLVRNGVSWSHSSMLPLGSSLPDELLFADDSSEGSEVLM
MARK3 (human), sequence (P27448 whole entry, looked up): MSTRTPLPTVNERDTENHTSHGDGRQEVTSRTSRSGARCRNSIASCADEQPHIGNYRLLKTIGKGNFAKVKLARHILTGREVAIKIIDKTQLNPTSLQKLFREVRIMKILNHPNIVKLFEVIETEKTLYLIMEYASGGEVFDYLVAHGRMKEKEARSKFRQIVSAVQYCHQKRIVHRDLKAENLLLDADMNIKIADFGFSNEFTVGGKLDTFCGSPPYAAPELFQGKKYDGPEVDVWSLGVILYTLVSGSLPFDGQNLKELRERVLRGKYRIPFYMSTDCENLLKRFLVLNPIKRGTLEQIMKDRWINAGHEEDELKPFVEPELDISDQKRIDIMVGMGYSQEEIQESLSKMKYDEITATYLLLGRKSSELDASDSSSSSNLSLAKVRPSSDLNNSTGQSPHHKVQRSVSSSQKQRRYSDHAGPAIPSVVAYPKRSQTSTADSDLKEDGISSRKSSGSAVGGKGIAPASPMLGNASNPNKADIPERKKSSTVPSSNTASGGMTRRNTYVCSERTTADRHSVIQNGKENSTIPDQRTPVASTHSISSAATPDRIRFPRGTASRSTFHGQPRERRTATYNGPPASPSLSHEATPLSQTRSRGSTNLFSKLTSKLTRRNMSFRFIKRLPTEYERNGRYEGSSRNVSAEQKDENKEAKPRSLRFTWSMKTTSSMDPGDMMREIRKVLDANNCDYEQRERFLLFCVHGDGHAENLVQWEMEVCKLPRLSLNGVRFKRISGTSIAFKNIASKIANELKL
DYRK1B (human), sequence (Q9Y463 whole entry, looked up): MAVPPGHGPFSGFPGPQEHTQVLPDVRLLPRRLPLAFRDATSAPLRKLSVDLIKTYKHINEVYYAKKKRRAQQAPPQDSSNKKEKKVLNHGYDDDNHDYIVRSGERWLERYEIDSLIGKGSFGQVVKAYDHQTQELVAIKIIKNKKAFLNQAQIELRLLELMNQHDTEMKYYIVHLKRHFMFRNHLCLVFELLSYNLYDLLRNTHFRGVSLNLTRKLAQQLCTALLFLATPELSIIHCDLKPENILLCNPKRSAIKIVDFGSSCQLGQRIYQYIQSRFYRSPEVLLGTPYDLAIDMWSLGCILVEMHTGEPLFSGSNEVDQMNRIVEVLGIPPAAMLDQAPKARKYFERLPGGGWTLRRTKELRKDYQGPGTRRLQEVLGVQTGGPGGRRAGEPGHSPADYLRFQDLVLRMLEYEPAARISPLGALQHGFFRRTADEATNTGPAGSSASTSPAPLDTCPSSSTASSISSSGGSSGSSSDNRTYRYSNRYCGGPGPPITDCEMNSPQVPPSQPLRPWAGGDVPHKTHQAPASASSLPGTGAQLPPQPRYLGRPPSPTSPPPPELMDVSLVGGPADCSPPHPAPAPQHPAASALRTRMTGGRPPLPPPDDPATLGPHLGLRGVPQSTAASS
EIF2AK2 (human), sequence (P19525 whole entry, looked up): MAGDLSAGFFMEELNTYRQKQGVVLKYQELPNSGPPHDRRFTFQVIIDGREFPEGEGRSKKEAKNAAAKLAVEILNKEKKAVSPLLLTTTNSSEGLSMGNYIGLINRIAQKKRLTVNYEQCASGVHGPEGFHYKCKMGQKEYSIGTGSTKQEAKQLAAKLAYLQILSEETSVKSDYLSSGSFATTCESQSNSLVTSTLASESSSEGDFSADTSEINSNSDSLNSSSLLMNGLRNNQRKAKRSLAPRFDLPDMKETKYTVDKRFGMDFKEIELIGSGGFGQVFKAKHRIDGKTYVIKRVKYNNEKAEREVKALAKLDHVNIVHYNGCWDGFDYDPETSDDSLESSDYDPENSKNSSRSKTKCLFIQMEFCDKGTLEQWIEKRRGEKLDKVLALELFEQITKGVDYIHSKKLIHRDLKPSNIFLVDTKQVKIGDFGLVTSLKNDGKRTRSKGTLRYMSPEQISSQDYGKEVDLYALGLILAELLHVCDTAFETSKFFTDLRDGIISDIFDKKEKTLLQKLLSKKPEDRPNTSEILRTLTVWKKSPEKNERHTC

SMILES | kinase still bound, per cent of control [1] [%] | kinase still bound, per cent of control (CAMK1D (human)) [%] | kinase still bound, per cent of control (CDK2 (human)) [%] | kinase still bound, per cent of control (CSNK1A1L (human)) [%] | kinase still bound, per cent of control (CSNK2A1 (human)) [%] | kinase still bound, per cent of control (DYRK1B (human)) [%] | kinase still bound, per cent of control (EGFR (human)) [%] | kinase still bound, per cent of control [2] [%] | kinase still bound, per cent of control (EIF2AK2 (human)) [%] | kinase still bound, per cent of control (EPHA7 (human)) [%] | kinase still bound, per cent of control (FLT1 (human)) [%] | kinase still bound, per cent of control (LATS1 (human)) [%] | kinase still bound, per cent of control (LIMK2 (human)) [%] | kinase still bound, per cent of control (MAP2K4 (human)) [%] | kinase still bound, per cent of control (MAP2K7 (human)) [%] | kinase still bound, per cent of control (MAPK10 (human)) [%] | kinase still bound, per cent of control (MAPK6 (human)) [%] | kinase still bound, per cent of control (MARK3 (human)) [%] | kinase still bound, per cent of control (MERTK (human)) [%] | kinase still bound, per cent of control (MST4 (human)) [%] | other results
COc1cc2ncnc(Nc3cccc(Cl)c3)c2cc1OC | 55 | 83 | 100 | 72 | 19 | 70 | 0.05 | 1.4 | 52 | 46 | 75 | 100 | 100 | 85 | 73 | 9.8 | 33 | 100 | 71 | 84 | kinase still bound, per cent of control (CLK1 (human)): 59%; kinase still bound, per cent of control (MTOR (human)): 83%; kinase still bound, per cent of control (MYLK3 (human)): 76%; kinase still bound, per cent of control (NTRK1 (human)): 88%; kinase still bound, per cent of control (NUAK1 (human)): 98%; kinase still bound, per cent of control (PAK4 (human)): 84%; kinase still bound, per cent of control (PIK3CA (human)): 76%; kinase still bound, per cent of control [3]: 55%; kinase still bound, per cent of control (RPS6KA2 KD2 (human)): 90%; kinase still bound, per cent of control (RPS6KA4 KD2 (human)): 91%; kinase still bound, per cent of control (RPS6KA6 KD2 (human)): 38%; kinase still bound, per cent of control (SRC (human)): 9.9%; kinase still bound, per cent of control (STK10 (human)): 1.5%; kinase still bound, per cent of control (STK39 (human)): 57%; kinase still bound, per cent of control (TEC (human)): 100%; kinase still bound, per cent of control (TNK2 (human)): 61%; kinase still bound, per cent of control [4]: 52%; kinase still bound, per cent of control (ULK2 (human)): 87%; kinase still bound, per cent of control (YSK4 (human)): 3.2%
COc1cc2c(Nc3ccc(NC(=O)c4ccccc4)cc3)ncnc2cc1OCCCN1CCOCC1 | 100 | 62 | 82 | 99 | 87 | 96 | 0.65 | 22 | 100 | 84 | 56 | 100 | 78 | 100 | 100 | 42 | 100 | 96 | 2.4 | 44 | kinase still bound, per cent of control (CLK1 (human)): 100%; kinase still bound, per cent of control (MTOR (human)): 70%; kinase still bound, per cent of control (MYLK3 (human)): 100%; kinase still bound, per cent of control (NTRK1 (human)): 16%; kinase still bound, per cent of control (NUAK1 (human)): 92%; kinase still bound, per cent of control (PAK4 (human)): 100%; kinase still bound, per cent of control (PIK3CA (human)): 100%; kinase still bound, per cent of control [3]: 100%; kinase still bound, per cent of control (RPS6KA2 KD2 (human)): 100%; kinase still bound, per cent of control (RPS6KA4 KD2 (human)): 100%; kinase still bound, per cent of control (RPS6KA6 KD2 (human)): 71%; kinase still bound, per cent of control (SRC (human)): 32%; kinase still bound, per cent of control (STK10 (human)): 0.15%; kinase still bound, per cent of control (STK39 (human)): 100%; kinase still bound, per cent of control (TEC (human)): 76%; kinase still bound, per cent of control (TNK2 (human)): 5.9%; kinase still bound, per cent of control [4]: 84%; kinase still bound, per cent of control (ULK2 (human)): 91%; kinase still bound, per cent of control (YSK4 (human)): 23%
CCCS(=O)(=O)Nc1ccc(F)c(C(=O)c2c[nH]c3ncc(Cl)cc23)c1F | 0 | 78 | 78 | 100 | 18 | 87 | 76 | 77 | 74 | 99 | 28 | 86 | 24 | 6.6 | 83 | 90 | 100 | 74 | 94 | 96 | kinase still bound, per cent of control (MAP4K4 (human)): 64%; kinase still bound, per cent of control (MTOR (human)): 58%; kinase still bound, per cent of control (MYLK3 (human)): 41%; kinase still bound, per cent of control (NTRK1 (human)): 100%; kinase still bound, per cent of control (NUAK1 (human)): 100%; kinase still bound, per cent of control (PAK4 (human)): 57%; kinase still bound, per cent of control (PIK3CA (human)): 82%; kinase still bound, per cent of control [3]: 100%; kinase still bound, per cent of control (RPS6KA2 KD2 (human)): 94%; kinase still bound, per cent of control (RPS6KA4 KD2 (human)): 69%; kinase still bound, per cent of control (RPS6KA6 KD2 (human)): 98%; kinase still bound, per cent of control (SRC (human)): 9.2%; kinase still bound, per cent of control (STK10 (human)): 68%; kinase still bound, per cent of control (STK39 (human)): 100%; kinase still bound, per cent of control (TEC (human)): 100%; kinase still bound, per cent of control (TNK2 (human)): 8.2%; kinase still bound, per cent of control [4]: 24%; kinase still bound, per cent of control (ULK2 (human)): 60%; kinase still bound, per cent of control (YSK4 (human)): 29%
